Laboratory results published in ChEMBL document CHEMBL2434948, “Discovery, synthesis, and characterization of an orally bioavailable, brain penetrant inhibitor of mixed lineage kinase 3” (J Med Chem, 2013).
pIC50: −log10 of the molar value. Active and inactive are the calls of the source. The rule behind the calls is not given here.

Legend:
[1] = target: Tyrosine-protein kinase ABL1 (Homo sapiens, UniProt P00519); test: Inhibition of human ABL1 mutant at 1 uM by qPCR analysis
[2] = target: Mitogen-activated protein kinase 12 (Homo sapiens) (UniProt P53778); test: Inhibition of human wild type p38g at 1 uM by qPCR analysis
[3] = tested on: Brain; test: Drug uptake in C57BL/6 mouse brain at 10 mg/kg, iv measured over 6 hrs; format: ADME, organism-based; set-up: dose 10 mg/kg, route intravenous; details: in vivo
[4] = target: Dual specificity protein kinase CLK1 (Homo sapiens) (UniProt P49759); test: Inhibition of human wild type CLK1 at 1 uM by qPCR analysis relative to control
[5] = target: Glycogen synthase kinase-3 beta (Homo sapiens, UniProt P49841)
Description: Inhibition of wild type human GSK3B by high throughput ATP-[33P] radiolabeled assay

[6] = target: Mitogen-activated protein kinase 3 (Homo sapiens) (UniProt P27361); test: Inhibition of human wild type ERK1 at 1 uM by qPCR analysis
[7] = target: Mitogen-activated protein kinase 11 (Homo sapiens) (UniProt Q15759); test: Inhibition of human wild type p38b at 1 uM by qPCR analysis
[8] = target: SRSF protein kinase 2 (Homo sapiens) (UniProt P78362); test: Inhibition of human wild type SRPK2 at 1 uM by qPCR analysis relative to control
[9] = target: Dual specificity protein kinase CLK2 (Homo sapiens) (UniProt P49760); test: Inhibition of human wild type CLK2 at 1 uM by qPCR analysis relative to control
[10] = target: Tyrosine-protein kinase ZAP-70 (Homo sapiens, UniProt P43403)
Description: Inhibition of wild type human ZAP70 by high throughput ATP-[33P] radiolabeled assay

[11] = target: Platelet-derived growth factor receptor beta (Homo sapiens) (UniProt P09619); test: Inhibition of human wild type PDGFRB at 1 uM by qPCR analysis relative to control
[12] = target: Aurora kinase C (Homo sapiens, UniProt Q9UQB9)
Description: Inhibition of wild type human Aurora kinase C kinase by high throughput ATP-[33P] radiolabeled assay

[13] = target: Cyclin-dependent kinase 1 (Homo sapiens, UniProt P06493)
Description: Inhibition of wild type human CDK1 by high throughput ATP-[33P] radiolabeled assay

[14] = in vivo; details: C57BL/6, mouse, po, 10 mg/kg
[15] = target: Receptor-type tyrosine-protein kinase FLT3 (Homo sapiens) (UniProt P36888); test: Inhibition of human wild type FLT3 at 1 uM by qPCR analysis relative to control
[16] = target: Cyclin-dependent kinase 4 (Homo sapiens) (UniProt P11802); test: Inhibition of human wild type CDK4 at 1 uM by qPCR analysis relative to control
[17] = target: Hepatocyte growth factor receptor (Homo sapiens, UniProt P08581)
Description: Inhibition of wild type human c-MET by high throughput ATP-[33P] radiolabeled assay

[18] = target: TRAF2 and NCK-interacting protein kinase (Homo sapiens) (UniProt Q9UKE5); test: Binding affinity to human wild type TNIK at 1 uM by qPCR analysis
[19] = target: Maternal embryonic leucine zipper kinase (Homo sapiens) (UniProt Q14680); test: Inhibition of human wild type MELK at 1 uM by qPCR analysis relative to control
[20] = target: RAC-beta serine/threonine-protein kinase (Homo sapiens) (UniProt P31751); test: Inhibition of human wild type AKT2 at 1 uM by qPCR analysis
[21] = target: Mitogen-activated protein kinase kinase kinase 11 (Homo sapiens, UniProt Q16584)
Description: Inhibition of MLK3 (unknown origin) after 20 mins by scintillation counting analysis in presence of [33P]-ATP

[22] = target: Proto-oncogene tyrosine-protein kinase Src (Homo sapiens, UniProt P12931)
Description: Inhibition of wild type human SRC by high throughput ATP-[33P] radiolabeled assay

[23] = target: RAC-alpha serine/threonine-protein kinase (Homo sapiens) (UniProt P31749); test: Inhibition of human wild type AKT1 at 1 uM by qPCR analysis
[24] = tested on: Leucine-rich repeat serine/threonine-protein kinase 2 (Homo sapiens), Q5S007 [G2019S]; test: Inhibition of human LRRK2 G2019S mutant at 1 uM by qPCR analysis relative to control
[25] = target: ALK tyrosine kinase receptor (Homo sapiens) (UniProt Q9UM73); test: Inhibition of human wild type ALK at 1 uM by qPCR analysis relative to control
[26] = target: Mitogen-activated protein kinase 14 (Homo sapiens, UniProt Q16539)
Description: Inhibition of wild type human P38a by high throughput ATP-[33P] radiolabeled assay

[27] = target: Rho-associated protein kinase 2 (Homo sapiens, UniProt O75116)
Rho-associated protein kinase 2, sequence (O75116 whole entry): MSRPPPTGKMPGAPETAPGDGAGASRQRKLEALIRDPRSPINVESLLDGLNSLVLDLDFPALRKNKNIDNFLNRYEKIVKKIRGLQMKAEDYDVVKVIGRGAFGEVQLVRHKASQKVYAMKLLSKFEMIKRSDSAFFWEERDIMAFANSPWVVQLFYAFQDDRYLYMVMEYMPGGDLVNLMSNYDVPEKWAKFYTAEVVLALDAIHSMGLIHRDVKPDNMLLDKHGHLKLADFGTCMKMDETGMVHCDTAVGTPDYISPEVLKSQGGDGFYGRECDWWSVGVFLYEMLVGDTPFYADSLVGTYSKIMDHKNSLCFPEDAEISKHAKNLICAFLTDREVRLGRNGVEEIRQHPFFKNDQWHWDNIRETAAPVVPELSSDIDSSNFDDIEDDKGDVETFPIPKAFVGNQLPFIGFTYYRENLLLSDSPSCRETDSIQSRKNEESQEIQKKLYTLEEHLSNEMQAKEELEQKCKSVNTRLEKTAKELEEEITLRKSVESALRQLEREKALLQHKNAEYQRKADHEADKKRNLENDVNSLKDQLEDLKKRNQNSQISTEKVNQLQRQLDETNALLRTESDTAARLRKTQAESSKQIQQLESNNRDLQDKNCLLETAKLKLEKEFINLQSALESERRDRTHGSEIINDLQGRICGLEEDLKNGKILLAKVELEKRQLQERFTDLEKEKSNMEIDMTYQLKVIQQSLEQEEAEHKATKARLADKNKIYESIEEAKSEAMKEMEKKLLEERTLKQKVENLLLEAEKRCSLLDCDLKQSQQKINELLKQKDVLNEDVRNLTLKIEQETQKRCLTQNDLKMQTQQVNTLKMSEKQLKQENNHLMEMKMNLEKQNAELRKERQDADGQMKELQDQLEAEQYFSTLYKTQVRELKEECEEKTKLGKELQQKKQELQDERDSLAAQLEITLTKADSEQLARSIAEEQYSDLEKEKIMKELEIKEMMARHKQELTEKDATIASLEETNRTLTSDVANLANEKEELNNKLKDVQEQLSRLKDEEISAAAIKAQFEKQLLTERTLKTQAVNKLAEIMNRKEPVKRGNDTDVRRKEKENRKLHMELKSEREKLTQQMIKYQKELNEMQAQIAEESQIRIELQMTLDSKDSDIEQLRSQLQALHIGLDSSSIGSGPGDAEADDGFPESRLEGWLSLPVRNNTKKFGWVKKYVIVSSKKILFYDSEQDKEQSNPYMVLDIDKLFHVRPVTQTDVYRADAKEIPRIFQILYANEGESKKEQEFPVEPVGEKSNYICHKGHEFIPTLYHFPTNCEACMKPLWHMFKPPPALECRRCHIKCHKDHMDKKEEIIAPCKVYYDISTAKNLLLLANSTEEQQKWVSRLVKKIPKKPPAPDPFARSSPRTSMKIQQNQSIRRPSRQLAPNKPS
Description: Inhibition of wild type human ROCK2 by high throughput ATP-[33P] radiolabeled assay

[28] = target: BDNF/NT-3 growth factors receptor (Homo sapiens, UniProt Q16620)
BDNF/NT-3 growth factors receptor, sequence (Q16620 whole entry): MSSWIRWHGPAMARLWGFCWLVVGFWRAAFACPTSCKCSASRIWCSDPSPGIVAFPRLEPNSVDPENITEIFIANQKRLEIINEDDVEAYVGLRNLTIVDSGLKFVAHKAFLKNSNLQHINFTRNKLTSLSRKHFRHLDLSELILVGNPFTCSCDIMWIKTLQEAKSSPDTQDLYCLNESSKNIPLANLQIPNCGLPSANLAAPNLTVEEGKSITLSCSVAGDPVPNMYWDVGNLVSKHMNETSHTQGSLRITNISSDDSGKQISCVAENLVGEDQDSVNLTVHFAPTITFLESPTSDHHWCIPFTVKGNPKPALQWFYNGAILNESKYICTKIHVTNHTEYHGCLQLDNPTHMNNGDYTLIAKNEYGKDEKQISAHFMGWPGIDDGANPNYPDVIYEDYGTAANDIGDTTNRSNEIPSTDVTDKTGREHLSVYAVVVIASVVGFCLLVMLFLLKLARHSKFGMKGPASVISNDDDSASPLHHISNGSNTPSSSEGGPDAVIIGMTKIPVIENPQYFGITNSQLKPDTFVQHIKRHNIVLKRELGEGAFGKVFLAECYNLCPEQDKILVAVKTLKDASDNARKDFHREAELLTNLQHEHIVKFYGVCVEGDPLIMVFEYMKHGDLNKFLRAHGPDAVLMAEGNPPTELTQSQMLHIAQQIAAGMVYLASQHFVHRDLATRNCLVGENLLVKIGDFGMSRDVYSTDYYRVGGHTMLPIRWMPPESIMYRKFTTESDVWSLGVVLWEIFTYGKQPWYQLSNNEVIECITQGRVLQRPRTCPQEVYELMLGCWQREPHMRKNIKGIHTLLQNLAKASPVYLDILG
Description: Inhibition of wild type human TRKB by high throughput ATP-[33P] radiolabeled assay

[29] = target: Serine/threonine-protein kinase MARK2 (Homo sapiens) (UniProt Q7KZI7); test: Inhibition of human wild type MARK2 at 1 uM by qPCR analysis relative to control
[30] = target: Serine/threonine-protein kinase B-raf (Homo sapiens) (UniProt P15056); test: Inhibition of human wild type BRAF at 1 uM by qPCR analysis
[31] = target: Serine/threonine-protein kinase MARK1 (Homo sapiens) (UniProt Q9P0L2); test: Inhibition of human wild type MARK1 at 1 uM by qPCR analysis relative to control
[32] = target: Mitogen-activated protein kinase kinase kinase 11 (Mus musculus, UniProt Q80XI6)
[33] = target: Aurora kinase B (Homo sapiens, UniProt Q96GD4)
Description: Inhibition of wild type human Aurora kinase B by high throughput ATP-[33P] radiolabeled assay

[34] = target: NUAK family SNF1-like kinase 1 (Homo sapiens) (UniProt O60285); test: Inhibition of human wild type ARK5 at 1 uM by qPCR analysis relative to control
[35] = target: Leucine-rich repeat serine/threonine-protein kinase 2 (Homo sapiens, UniProt Q5S007); test: Inhibition of human wild type LRRK2 at 1 uM by qPCR analysis relative to control
[36] = target: Ribosomal protein S6 kinase alpha-6 (Homo sapiens) (UniProt Q9UK32); test: Inhibition of human wild type RSK4 at 1 uM by qPCR analysis
Ribosomal protein S6 kinase alpha-6 (Homo sapiens), sequence (Q9UK32 whole entry): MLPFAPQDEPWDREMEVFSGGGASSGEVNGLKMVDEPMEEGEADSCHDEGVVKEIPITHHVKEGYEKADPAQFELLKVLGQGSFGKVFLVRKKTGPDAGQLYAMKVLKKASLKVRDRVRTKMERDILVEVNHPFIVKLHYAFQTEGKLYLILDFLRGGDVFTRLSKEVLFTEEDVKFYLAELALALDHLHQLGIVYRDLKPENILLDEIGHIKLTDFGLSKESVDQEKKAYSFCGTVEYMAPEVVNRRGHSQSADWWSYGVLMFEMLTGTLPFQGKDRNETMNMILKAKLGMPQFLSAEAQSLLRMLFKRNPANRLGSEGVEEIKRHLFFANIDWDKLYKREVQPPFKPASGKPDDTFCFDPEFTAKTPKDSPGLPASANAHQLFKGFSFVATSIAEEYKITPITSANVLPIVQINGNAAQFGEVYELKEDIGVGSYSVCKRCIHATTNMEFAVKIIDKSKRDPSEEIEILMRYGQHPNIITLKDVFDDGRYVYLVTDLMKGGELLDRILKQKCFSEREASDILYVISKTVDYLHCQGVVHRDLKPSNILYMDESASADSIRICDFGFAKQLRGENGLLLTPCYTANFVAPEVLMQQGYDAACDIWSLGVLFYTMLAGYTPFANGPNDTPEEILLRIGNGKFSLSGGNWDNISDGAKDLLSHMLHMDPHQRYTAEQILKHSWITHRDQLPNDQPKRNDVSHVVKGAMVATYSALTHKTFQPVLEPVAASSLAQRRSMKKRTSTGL

[37] = target: Mitogen-activated protein kinase 1 (Homo sapiens, UniProt P28482)
Description: Inhibition of wild type human ERK2 by high throughput ATP-[33P] radiolabeled assay

[38] = target: Dual specificity tyrosine-phosphorylation-regulated kinase 1B (Homo sapiens) (UniProt Q9Y463); test: Inhibition of human wild type DYRK1B at 1 uM by qPCR analysis relative to control
[39] = target: Epidermal growth factor receptor (Homo sapiens) (UniProt P00533); test: Inhibition of human wild type EGFR at 1 uM by qPCR analysis
Epidermal growth factor receptor (Homo sapiens), sequence (P00533 whole entry): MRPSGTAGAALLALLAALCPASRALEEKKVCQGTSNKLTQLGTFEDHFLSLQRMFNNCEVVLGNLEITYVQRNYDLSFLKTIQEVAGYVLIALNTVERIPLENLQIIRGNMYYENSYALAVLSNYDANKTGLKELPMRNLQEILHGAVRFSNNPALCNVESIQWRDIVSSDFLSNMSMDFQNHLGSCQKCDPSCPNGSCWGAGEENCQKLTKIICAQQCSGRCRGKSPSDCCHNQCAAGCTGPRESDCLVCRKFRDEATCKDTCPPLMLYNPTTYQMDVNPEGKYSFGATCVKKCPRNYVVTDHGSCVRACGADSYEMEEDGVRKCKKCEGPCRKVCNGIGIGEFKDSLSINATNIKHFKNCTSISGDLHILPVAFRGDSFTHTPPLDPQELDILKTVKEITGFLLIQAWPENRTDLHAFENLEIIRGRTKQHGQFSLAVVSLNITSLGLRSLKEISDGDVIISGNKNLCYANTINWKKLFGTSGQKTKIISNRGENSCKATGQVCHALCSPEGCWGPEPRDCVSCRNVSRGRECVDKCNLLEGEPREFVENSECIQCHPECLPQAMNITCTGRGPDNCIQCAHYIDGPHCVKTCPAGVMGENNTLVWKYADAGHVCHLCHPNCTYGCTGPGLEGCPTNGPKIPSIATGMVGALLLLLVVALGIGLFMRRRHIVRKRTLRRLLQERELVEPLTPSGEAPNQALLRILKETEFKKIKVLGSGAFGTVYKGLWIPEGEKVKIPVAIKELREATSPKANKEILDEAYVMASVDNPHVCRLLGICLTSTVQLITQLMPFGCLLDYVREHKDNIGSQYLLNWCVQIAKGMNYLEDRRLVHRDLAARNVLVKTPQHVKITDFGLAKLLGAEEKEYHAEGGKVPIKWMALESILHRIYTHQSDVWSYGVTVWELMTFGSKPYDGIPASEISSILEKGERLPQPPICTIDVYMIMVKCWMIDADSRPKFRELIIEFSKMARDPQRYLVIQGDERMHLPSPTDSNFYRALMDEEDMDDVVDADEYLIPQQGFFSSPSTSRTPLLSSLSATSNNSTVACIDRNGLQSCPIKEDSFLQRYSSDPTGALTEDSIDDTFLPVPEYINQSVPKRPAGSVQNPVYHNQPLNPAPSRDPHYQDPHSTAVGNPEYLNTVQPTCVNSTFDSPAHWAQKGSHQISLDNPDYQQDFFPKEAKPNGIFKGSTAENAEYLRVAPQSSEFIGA

[40] = target: Mitogen-activated protein kinase kinase kinase 9 (Homo sapiens, UniProt P80192)
Description: Inhibition of MLK1 (unknown origin)

[41] = target: Mitogen-activated protein kinase kinase kinase 10 (Homo sapiens, UniProt Q02779)
Mitogen-activated protein kinase kinase kinase 10, sequence (Q02779 whole entry): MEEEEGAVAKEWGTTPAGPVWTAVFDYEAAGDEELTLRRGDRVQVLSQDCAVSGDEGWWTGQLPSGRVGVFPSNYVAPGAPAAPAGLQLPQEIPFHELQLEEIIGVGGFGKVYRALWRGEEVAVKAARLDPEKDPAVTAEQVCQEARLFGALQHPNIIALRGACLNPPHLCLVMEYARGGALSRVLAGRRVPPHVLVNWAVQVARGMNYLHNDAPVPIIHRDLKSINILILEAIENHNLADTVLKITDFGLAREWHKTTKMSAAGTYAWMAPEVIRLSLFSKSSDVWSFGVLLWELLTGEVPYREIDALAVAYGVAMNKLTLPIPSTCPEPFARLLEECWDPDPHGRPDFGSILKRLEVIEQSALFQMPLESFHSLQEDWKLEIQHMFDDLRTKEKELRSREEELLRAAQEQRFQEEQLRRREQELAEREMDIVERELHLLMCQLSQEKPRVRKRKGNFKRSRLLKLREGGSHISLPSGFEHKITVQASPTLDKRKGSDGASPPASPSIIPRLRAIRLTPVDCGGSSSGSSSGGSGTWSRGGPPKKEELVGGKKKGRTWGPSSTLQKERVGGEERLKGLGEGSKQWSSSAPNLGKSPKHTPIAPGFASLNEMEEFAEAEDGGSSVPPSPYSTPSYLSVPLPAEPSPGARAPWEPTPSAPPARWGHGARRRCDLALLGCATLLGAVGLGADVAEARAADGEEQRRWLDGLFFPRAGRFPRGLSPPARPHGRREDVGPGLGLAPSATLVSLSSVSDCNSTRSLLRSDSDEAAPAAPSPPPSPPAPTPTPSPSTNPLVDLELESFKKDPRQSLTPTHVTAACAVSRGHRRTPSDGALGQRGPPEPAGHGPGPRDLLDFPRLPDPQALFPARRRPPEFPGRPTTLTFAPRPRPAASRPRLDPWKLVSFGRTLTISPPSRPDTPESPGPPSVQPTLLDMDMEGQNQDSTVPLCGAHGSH
Description: Inhibition of MLK2 (unknown origin)

Compound: CN1CCN(Cc2ccc(-c3cnc4[nH]cc(-c5ccc6[nH]ccc6c5)c4c3)cc2)CC1
- inhibition [1]: Active
- inhibition [2]: inactive
- Drug uptake [3]: Active
- inhibition [4]: > 90%
- pIC50 [5]: < 5.00
- inhibition [6]: inactive
- inhibition [7]: inactive
- inhibition [8]: > 90%
- inhibition [9]: > 90%
- pIC50 [10]: 5.30
- inhibition [11]: > 90%
- pIC50 [12]: 6.54
- pIC50 [13]: 5.95
- Tmax [14]: 4 h
- inhibition [15]: > 90%
- inhibition [16]: > 90%
- pIC50 [17]: 6.75
- inhibition [18]: Active
- inhibition [19]: > 90%
- inhibition [20]: inactive
- pIC50 [21]: 7.85
- pIC50 [22]: 5.36
- inhibition [23]: inactive
- inhibition [24]: 96%
- inhibition [25]: > 90%
- pIC50 [26]: 4.92
- pIC50 [27]: 6.95
- pIC50 [28]: 6.66
- inhibition [29]: 49%
- inhibition [30]: inactive
- inhibition [31]: 92%
- pIC50 [32]: 6.34
- pIC50 [33]: 6.91
- inhibition [34]: > 90%
- inhibition [35]: 92%
- inhibition [36]: inactive
- pIC50 [37]: 5.20
- inhibition [38]: > 90%
- inhibition [39]: inactive
- pIC50 [40]: 7.72
- pIC50 [41]: 7.38
